The values below come from patent US10829481B2, “Benzimidazole derivatives as modulators of ROR-gamma” (Vitae Pharmaceuticals, LLC, priority 2016, dated 2020).

Experiment [1] addresses recombinant RORγ Ligand Binding Domain (LBD) protein (Homo sapiens (Human), UniProt P51449). The experiment is described as follows: Radio-Ligand RORγ Binding Assay (Assay 1). Particulars: competition with 25-hydroxy [26,27-3H]-cholesterol, SPA. An outline of the steps: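 Scintillation proximity competition against 25-hydroxy [26,27-^3H]-cholesterol (8.6 nM solution) for 6×His-GST-tagged RORγ LBD (24 nM solution) in HEPES pH 7.4 with CHAPS, β-octylglucopyranoside and DTT; semi-log compound dilutions, ~1 h total at rt with poly-Lys YSi beads. IC50 from four-parameter fit; Ki derived from [RL] and radioligand KD.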

For experiment [2], the target named is full-length RORγt in Jurkat cells (Homo sapiens (Human), UniProt P51449). The experiment is described as follows: RORγt 5×RORE Assay in Jurkat Cells (Assay 2). Type of experiment: cell-based. The following applies: 5×RORE Nanoluc luciferase reporter. On the technique in general: In a reporter assay the amount or activity of a reporter protein is the signal.
Chain of full-length RORγt in Jurkat cells (P51449 other isoform, or with tags, fused parts or gaps): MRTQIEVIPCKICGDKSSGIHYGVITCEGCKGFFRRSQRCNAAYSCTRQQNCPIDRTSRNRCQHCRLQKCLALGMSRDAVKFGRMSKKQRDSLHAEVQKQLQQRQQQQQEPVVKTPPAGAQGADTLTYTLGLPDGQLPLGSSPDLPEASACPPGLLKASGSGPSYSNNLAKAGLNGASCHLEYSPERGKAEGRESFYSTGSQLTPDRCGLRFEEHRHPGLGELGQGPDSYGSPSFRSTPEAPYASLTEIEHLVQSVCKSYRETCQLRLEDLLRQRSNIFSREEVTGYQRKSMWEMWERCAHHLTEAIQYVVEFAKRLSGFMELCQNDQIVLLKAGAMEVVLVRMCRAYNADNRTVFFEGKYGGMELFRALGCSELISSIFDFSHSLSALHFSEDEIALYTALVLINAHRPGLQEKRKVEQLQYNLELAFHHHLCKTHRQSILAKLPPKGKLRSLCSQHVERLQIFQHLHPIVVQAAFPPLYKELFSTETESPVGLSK

A value given as a limit tells only on which side of the number the result lay.

Chain of recombinant RORγ Ligand Binding Domain (LBD) protein (P51449 269-508): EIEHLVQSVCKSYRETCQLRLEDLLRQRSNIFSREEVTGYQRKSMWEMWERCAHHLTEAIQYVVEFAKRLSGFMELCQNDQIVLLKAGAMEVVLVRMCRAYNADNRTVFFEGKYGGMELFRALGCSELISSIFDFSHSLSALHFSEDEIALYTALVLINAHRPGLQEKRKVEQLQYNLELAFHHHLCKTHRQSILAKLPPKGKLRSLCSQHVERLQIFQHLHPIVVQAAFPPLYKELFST

For orientation: Ki means a dissociation constant, usually derived from enzyme kinetics or from competition with a known ligand. A word on the IC50: it is the midpoint of a concentration-inhibition curve. A low value points to greater potency in that assay. On to `CCS(=O)(=O)c1ccc(CNC(=O)c2ccc3c(c2)nc(C(F)(F)F)n3Cc2cccc(C#N)c2)cc1` [I-90, 1-(3-cyanobenzyl)-N-(4-(ethylsulfonyl)benzyl)-2-(trifluoromethyl)-1H-benzo[d]imidazole-5-carboxamide], for which the Ki in experiment [1] is less than 100 nM. This compound had an IC50 in experiment [2] of less than 100 nM.
In the case of `CCS(=O)(=O)c1ccc(CNC(=O)c2ccc3c(c2)nc(C(F)(F)F)n3C2(c3cccc(C#N)c3)CC2)cc1` [I-92, 1-(1-(3-cyanophenyl)cyclopropyl)-N-(4-(ethylsulfonyl)benzyl)-2-(trifluoromethyl)-1H-benzo[d]imidazole-5-carboxamide], the Ki in experiment [1] was less than 100 nM. Besides, the IC50 in experiment [2] lay within 100 to 1000 nM.
The like results for `CCS(=O)(=O)c1ccc(CNC(=O)c2ccc3c(c2)nc(C(F)(F)F)n3[C@@H](C)c2cccc(C#N)c2)cc1` [I-93.1, (S)-1-(1-(3-cyanophenyl)ethyl)-N-(4-(ethylsulfonyl)benzyl)-2-(trifluoromethyl)-1H-benzo[d]imidazole-5-carboxamide] were, in that order, less than 100 nM and less than 100 nM.
As to `CCS(=O)(=O)c1ccc(CNC(=O)c2ccc3c(c2)nc(C(F)(F)F)n3Cc2cc(C#N)ccc2F)cc1` [I-94, 1-(5-cyano-2-fluorobenzyl)-N-(4-(ethylsulfonyl)benzyl)-2-(trifluoromethyl)-1H-benzo[d]imidazole-5-carboxamide], the Ki in experiment [1] was less than 100 nM. The compound also returned an IC50 in experiment [2] of 100 to 1000 nM.
The like results for `CCS(=O)(=O)c1ccc(CNC(=O)c2ccc3c(c2)nc(C(F)(F)F)n3Cc2cccc3occc23)cc1` [I-95, 1-(benzofuran-4-ylmethyl)-N-(4-(ethylsulfonyl)benzyl)-2-(trifluoromethyl)-1H-benzo[d]imidazole-5-carboxamide] were, in that order, less than 100 nM and less than 100 nM.
Turning to `CCS(=O)(=O)c1ccc(CNC(=O)c2ccc3c(c2)nc(C(F)(F)F)n3Cc2cccc3[nH]ncc23)cc1` [I-97, 1-((1H-indazol-4-yl)methyl)-N-(4-(ethylsulfonyl)benzyl)-2-(trifluoromethyl)-1H-benzo[d]imidazole-5-carboxamide], in experiment [1], the Ki is less than 100 nM. Also, the IC50 in experiment [2] is less than 100 nM.
For the compound `CCS(=O)(=O)c1ccc(CNC(=O)c2ccc3c(c2)nc(C(F)(F)F)n3Cc2cccc3c2OCO3)cc1` [I-98, 1-(benzo[d][1,3]dioxol-4-ylmethyl)-N-(4-(ethylsulfonyl)benzyl)-2-(trifluoromethyl)-1H-benzo[d]imidazole-5-carboxamide], in experiment [1], the Ki was less than 100 nM. In addition, the IC50 in experiment [2] was less than 100 nM.
Regarding `CCS(=O)(=O)c1ccc(CNC(=O)c2ccc3c(c2)nc(C(F)(F)F)n3Cc2cccc(C(=O)OC)c2)cc1` [I-99, methyl 3-((5-((4-(ethylsulfonyl)benzyl)carbamoyl)-2-(trifluoromethyl)-1H-benzo[d]imidazol-1-yl)methyl)benzoate], the Ki in experiment [1] was less than 100 nM. In experiment [2], this compound had an IC50 of 100 to 1000 nM.
The like results for `CCS(=O)(=O)c1ccc(CNC(=O)c2ccc3c(c2)nc(C(F)(F)F)n3Cc2cncc3[nH]ccc23)cc1` [I-100, 1-((1H-pyrrolo[2,3-c]pyridin-4-yl)methyl)-N-(4-(ethylsulfonyl)benzyl)-2-(trifluoromethyl)-1H-benzo[d]imidazole-5-carboxamide] were, in that order, less than 100 nM and 100 to 1000 nM.
Consider `CCS(=O)(=O)c1ccc([C@H](CO)NC(=O)c2ccc3c(c2)nc(C2CC2)n3Cc2cccc3c2OC(C)(C)C3)cc1` [I-101, (R)-2-cyclopropyl-1-((2,2-dimethyl-2,3-dihydrobenzofuran-7-yl)methyl)-N-(1-(4-(ethylsulfonyl)phenyl)-2-hydroxyethyl)-1H-benzo[d]imidazole-5-carboxamide], for which the inhibition constant Ki in experiment [1] is less than 100 nM. Also, the IC50 in experiment [2] was more than 1000 nM.
The like results for `CCS(=O)(=O)c1ccc([C@H](CO)NC(=O)c2ccc3c(c2)nc(C2CC2)n3Cc2cccc3c2OCC3)cc1` [I-102, (R)-2-cyclopropyl-1-((2,3-dihydrobenzofuran-7-yl)methyl)-N-(1-(4-(ethylsulfonyl)phenyl)-2-hydroxyethyl)-1H-benzo[d]imidazole-5-carboxamide] were, in that order, less than 100 nM and less than 100 nM.
